Drawing on patent US20050096354A1 (published 2005), this text covers melting point for 36 molecules.

`Cc1ccc(-c2c(C#N)nn(-c3c(Cl)cc(C(F)(F)F)cc3Cl)c2N)cc1` gave a melting point of 243 to 244 °C. `N#Cc1nn(-c2c(Cl)cc(C(F)(F)F)cc2Cl)c(N)c1-c1ccccc1` showed a melting point of 198 to 199 °C. For `N#Cc1nn(-c2c(Cl)cc(C(F)(F)F)cc2Cl)c(N)c1-c1cccc([N+](=O)[O-])c1` the value was 212 to 214 °C; for `N#Cc1nn(-c2c(Cl)cc(C(F)(F)F)cc2Cl)c(N)c1-c1ccc(Br)cc1`, 242 to 244 °C; for `N#Cc1nn(-c2c(Cl)cc(C(F)(F)F)cc2Cl)c(N)c1-c1ccc(Cl)cc1`, 235 to 237 °C.

On to `N#Cc1nn(-c2c(Cl)cc(C(F)(F)F)cc2Cl)c(N)c1-c1ccc(F)cc1`, for which the melting point is 222 to 223 °C. For `N#Cc1nn(-c2c(Cl)cc(C(F)(F)F)cc2Cl)c(N)c1-c1cc(Cl)cc(Cl)c1` the value was 228 to 230 °C; for `N#Cc1nn(-c2c(Cl)cc(C(F)(F)F)cc2Cl)c(N)c1-c1ccc(F)c(Cl)c1`, 197 to 198 °C; for `COC(=O)c1cccc(-c2c(C#N)nn(-c3c(Cl)cc(C(F)(F)F)cc3Cl)c2N)c1`, 214 to 216 °C. For `N#Cc1nn(-c2c(Cl)cc(C(F)(F)F)cc2Cl)c(N)c1-c1cccc(N)c1` the value was 187 °C. For `COc1ccc(-c2c(C#N)nn(-c3c(Cl)cc(C(F)(F)F)cc3Cl)c2N)cc1` the value was 222 °C.

The molecule `N#Cc1nn(-c2c(Cl)cc(C(F)(F)F)cc2Cl)c(N)c1-c1ccc2c(c1)OCO2` had a melting point of 222 °C. `COc1ccc(-c2c(C#N)nn(-c3c(Cl)cc(C(F)(F)F)cc3Cl)c2N)cc1OC`: the melting point stood at 250 °C. For `N#Cc1nn(-c2c(Cl)cc(C(F)(F)F)cc2Cl)c(N)c1-c1cccc(F)c1` the value was 164 °C; for `N#Cc1nn(-c2c(Cl)cc(C(F)(F)F)cc2Cl)c(N)c1-c1cccc(Cl)c1`, 161 to 162 °C. For `N#Cc1nn(-c2c(Cl)cc(C(F)(F)F)cc2Cl)c(N)c1-c1ccccc1F` the value was 197 °C; for `COc1ccccc1-c1c(C#N)nn(-c2c(Cl)cc(C(F)(F)F)cc2Cl)c1N`, 193 °C.

On to `Cc1ccccc1-c1c(C#N)nn(-c2c(Cl)cc(C(F)(F)F)cc2Cl)c1N`, for which the melting point is 199 to 202 °C. For `N#Cc1nn(-c2c(Cl)cc(C(F)(F)F)cc2Cl)c(N)c1-c1ccccc1C(F)(F)F` the value was 210 to 212 °C; for `N#Cc1nn(-c2c(Cl)cc(C(F)(F)F)cc2Cl)c(N)c1-c1ccccc1Cl`, 192 to 193 °C; for `N#Cc1nn(-c2c(Cl)cc(C(F)(F)F)cc2Cl)c(N)c1-c1cccc2ccccc12`, 208 °C. In the case of `N#Cc1nn(-c2c(Cl)cc(C(F)(F)F)cc2Cl)c(N)c1-c1cccnc1`, the melting point lay within 265 to 267 °C.

For the molecule `N#Cc1nn(-c2c(Cl)cc(C(F)(F)F)cc2Cl)c(N)c1-c1ccncc1`, the melting point was 266 to 268 °C (dec.). For `N#Cc1nn(-c2c(Cl)cc(C(F)(F)F)cc2Cl)c(N)c1-c1cccs1` the value was 206 to 207 °C.

In turn, `N#Cc1nn(-c2c(Cl)cc(C(F)(F)F)cc2Cl)c(N)c1-c1ccsc1` displayed a melting point of 210 to 212 °C. For `N#Cc1nn(-c2c(Cl)cc(C(F)(F)F)cc2Cl)c(N)c1-c1ccoc1` the value was 180 to 181 °C.

`N#Cc1nn(-c2c(Cl)cccc2Cl)c(N)c1-c1ccco1`: the melting point was 222.6 °C.

In turn, `N#Cc1nn(-c2c(Cl)cc(C(F)(F)F)cc2Cl)c(N)c1-c1cc(Br)no1` returned a melting point of 227 °C. For `Cc1nc(-c2c(C#N)nn(-c3c(Cl)cc(C(F)(F)F)cc3Cl)c2N)cs1` the value was 226 to 228 °C. Take `N#Cc1nn(-c2c(Cl)cc(C(F)(F)F)cc2Cl)c(N)c1-c1ccc(Br)s1`: the melting point came out at 214 °C. For `N#Cc1nn(-c2c(Cl)cc(C(F)(F)F)cc2Cl)c(N)c1-c1ccc(SC(F)(F)F)s1` the value was 162 to 163 °C; for `N#Cc1nn(-c2c(Cl)cc(C(F)(F)F)cc2Cl)c(N)c1-c1onc(Br)c1Br`, 279 °C.

Molecule `N#Cc1nn(-c2c(Cl)cc(C(F)(F)F)cc2Cl)c(N)c1-c1ccoc1[S+]([O-])C(F)(F)F` (stereo not drawn) had a melting point of 141 to 142 °C. For `N#Cc1nn(-c2c(Cl)cc(C(F)(F)F)cc2Cl)c(N)c1-c1ccc(C(F)(F)F)o1` the value was 148 to 151 °C; for `N#Cc1nn(-c2c(Cl)cc(C(F)(F)F)cc2Cl)c(N)c1-c1cc(Cl)oc1Cl`, 193 to 194 °C; for `N#Cc1nn(-c2c(Cl)cc(C(F)(F)F)cc2Cl)c(N)c1C1CC1(Br)Br` (stereo not drawn), 178 to 179 °C.

As usually defined, the melting point is the temperature of the solid-liquid transition.
